Assays:
barnyard grass [1] = assay: Test Example 3: herbicidal effect by foliage application, Wagner pot (Table 18, symbol H); format: in vivo, barnyard grass (Echinochloa crus-galli)
In short: (§1)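 Plants were sown in alluvial soil held under 0.1–0.5 cm standing water and grown 14 days in a greenhouse at 25–30 °C. An emulsifiable formulation, water-diluted to the set dose, was then sprayed onto the foliage, and effects were scored three weeks later using previously defined criteria.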

Chinese sprangletop = assay: Test Example 3: herbicidal effect by foliage application, Wagner pot (Table 18, symbol D); format: in vivo, chinese sprangletop (Leptochloa chinensis)
In short: as §1

rice flat sedge = assay: Test Example 3: herbicidal effect by foliage application, Wagner pot (Table 18, symbol E); format: in vivo, rice flat sedge (Cyperus iria)
In short: as §1

southern crabgrass [2] = assay: Test Example 4: herbicidal effect by soil treatment (Table 19, symbol F); format: in vivo, southern crabgrass (Digitaria ciliaris)
In short: (§2)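 Soil-surface application: an emulsion agent diluted with water to the predetermined dose is sprayed uniformly over seeds lying under roughly 1.5 cm of sterilized diluvial soil. Boxes stay in a greenhouse at 25° C. to 30° C. Three weeks later, each species is graded on previously defined criteria.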

green foxtail [3] = assay: Test Example 4: herbicidal effect by soil treatment (Table 19, symbol G); format: in vivo, green foxtail (Setaria viridis)
In short: as §2

barnyard grass [4] = assay: Test Example 4: herbicidal effect by soil treatment (Table 19, symbol H); format: in vivo, barnyard grass (Echinochloa crus-galli)
In short: as §2

wild oat [5] = assay: Test Example 4: herbicidal effect by soil treatment (Table 19, symbol I); format: in vivo, wild oat (Avena fatua)
In short: as §2

blackgrass [6] = assay: Test Example 4: herbicidal effect by soil treatment (Table 19, symbol J); format: in vivo, blackgrass (Alopecurus myosuroides)
In short: as §2

Italian ryegrass [7] = assay: Test Example 4: herbicidal effect by soil treatment (Table 19, symbol K); format: in vivo, Italian ryegrass (Lolium multiflorum)
In short: as §2

windgrass [8] = assay: Test Example 4: herbicidal effect by soil treatment (Table 19, symbol L); format: in vivo, windgrass (Apera spica-venti)
In short: as §2

velvetleaf [9] = assay: Test Example 4: herbicidal effect by soil treatment (Table 19, symbol M); format: in vivo, velvetleaf (Abutilon theophrasti)
In short: as §2

redroot pigweed [10] = assay: Test Example 4: herbicidal effect by soil treatment (Table 19, symbol N); format: in vivo, redroot pigweed (Amaranthus retroflexus)
In short: as §2

lambsquarters [11] = assay: Test Example 4: herbicidal effect by soil treatment (Table 19, symbol O); format: in vivo, lambsquarters (Chenopodium album)
In short: as §2

chickweed [12] = assay: Test Example 4: herbicidal effect by soil treatment (Table 19, symbol P); format: in vivo, common chickweed (Stellaria media)
In short: as §2

persian speedwell [13] = assay: Test Example 4: herbicidal effect by soil treatment (Table 19, symbol R); format: in vivo, Persian speedwell (Veronica persica)
In short: as §2

southern crabgrass [14] = assay: Test Example 5: herbicidal effect by foliage application, plastic box (Table 20, symbol F); format: in vivo, southern crabgrass (Digitaria ciliaris); conditions: foliage application, three weeks after application
In short: (§3)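 Sow seeds spot-wise in sterilized diluvial soil; cover with ~1.5 cm soil. Grow 14 days in greenhouse, 25° C. to 30° C. Spray foliage with emulsion diluted to predetermined amount. Rate effect after 3 weeks.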

green foxtail [15] = assay: Test Example 5: herbicidal effect by foliage application, plastic box (Table 20, symbol G); format: in vivo, green foxtail (Setaria viridis); conditions: foliage application, three weeks after application
In short: as §3

barnyard grass [16] = assay: Test Example 5: herbicidal effect by foliage application, plastic box (Table 20, symbol H); format: in vivo, barnyard grass (Echinochloa crus-galli); conditions: foliage application, three weeks after application
In short: as §3

wild oat [17] = assay: Test Example 5: herbicidal effect by foliage application, plastic box (Table 20, symbol I); format: in vivo, wild oat (Avena fatua); conditions: foliage application, three weeks after application
In short: as §3

blackgrass [18] = assay: Test Example 5: herbicidal effect by foliage application, plastic box (Table 20, symbol J); format: in vivo, blackgrass (Alopecurus myosuroides); conditions: foliage application, three weeks after application
In short: as §3

Italian ryegrass [19] = assay: Test Example 5: herbicidal effect by foliage application, plastic box (Table 20, symbol K); format: in vivo, Italian ryegrass (Lolium multiflorum); conditions: foliage application, three weeks after application
In short: as §3

windgrass [20] = assay: Test Example 5: herbicidal effect by foliage application, plastic box (Table 20, symbol L); format: in vivo, windgrass (Apera spica-venti); conditions: foliage application, three weeks after application
In short: as §3

velvetleaf [21] = assay: Test Example 5: herbicidal effect by foliage application, plastic box (Table 20, symbol M); format: in vivo, velvetleaf (Abutilon theophrasti); conditions: foliage application, three weeks after application
In short: as §3

redroot pigweed [22] = assay: Test Example 5: herbicidal effect by foliage application, plastic box (Table 20, symbol N); format: in vivo, redroot pigweed (Amaranthus retroflexus); conditions: foliage application, three weeks after application
In short: as §3

lambsquarters [23] = assay: Test Example 5: herbicidal effect by foliage application, plastic box (Table 20, symbol O); format: in vivo, lambsquarters (Chenopodium album); conditions: foliage application, three weeks after application
In short: as §3

chickweed [24] = assay: Test Example 5: herbicidal effect by foliage application, plastic box (Table 20, symbol P); format: in vivo, common chickweed (Stellaria media); conditions: foliage application, three weeks after application
In short: as §3

persian speedwell [25] = assay: Test Example 5: herbicidal effect by foliage application, plastic box (Table 20, symbol R); format: in vivo, Persian speedwell (Veronica persica); conditions: foliage application, three weeks after application
In short: as §3

SMILES: Cc1nn(C)c(=O)c(-c2c(-c3ccccc3OCC(F)F)sc3ccccc23)c1O [1-116]
- herbicidal effect on H (barnyard grass), rating 0-5 (barnyard grass [1]; 320 g/ha): 5 (Herbicidal rate of 90% or more (almost completely withered))
- herbicidal effect on D (Chinese sprangletop), rating 0-5 (Chinese sprangletop; 320 g/ha): 2 (Herbicidal rate of 20% or more and less than 40%)
- herbicidal effect on E (rice flat sedge), rating 0-5 (rice flat sedge; 320 g/ha): 4 (Herbicidal rate of 70% or more and less than 90%)
- F: southern crabgrass, herbicidal effect rating (southern crabgrass [2]; AAH 320 g/ha): 0 (Herbicidal rate of 5% or less (almost no effect))
- G: green foxtail, herbicidal effect rating (green foxtail [3]; AAH 320 g/ha): 0 (Herbicidal rate of 5% or less (almost no effect))
- H: barnyard grass, herbicidal effect rating (barnyard grass [4]; AAH 320 g/ha): 0 (Herbicidal rate of 5% or less (almost no effect))
- I: wild oat, herbicidal effect rating (wild oat [5]; AAH 320 g/ha): 1 (Herbicidal rate of 5% or more and less than 20%)
- J: blackgrass, herbicidal effect rating (blackgrass [6]; AAH 320 g/ha): 1 (Herbicidal rate of 5% or more and less than 20%)
- K: Italian ryegrass, herbicidal effect rating (Italian ryegrass [7]; AAH 320 g/ha): 0 (Herbicidal rate of 5% or less (almost no effect))
- L: windgrass, herbicidal effect rating (windgrass [8]; AAH 320 g/ha): 3 (Herbicidal rate of 40% or more and less than 70%)
- M: velvetleaf, herbicidal effect rating (velvetleaf [9]; AAH 320 g/ha): 2 (Herbicidal rate of 20% or more and less than 40%)
- N: redroot pigweed, herbicidal effect rating (redroot pigweed [10]; AAH 320 g/ha): 5 (Herbicidal rate of 90% or more (almost completely withered))
- O: lambsquarters, herbicidal effect rating (lambsquarters [11]; AAH 320 g/ha): 3 (Herbicidal rate of 40% or more and less than 70%)
- P: chickweed, herbicidal effect rating (chickweed [12]; AAH 320 g/ha): 5 (Herbicidal rate of 90% or more (almost completely withered))
- R: persian speedwell, herbicidal effect rating (persian speedwell [13]; AAH 320 g/ha): 5 (Herbicidal rate of 90% or more (almost completely withered))
- F: southern crabgrass, herbicidal effect (southern crabgrass [14]; AAH 320 g/ha): 4 (Herbicidal rate of 70% or more and less than 90%)
- G: green foxtail, herbicidal effect (green foxtail [15]; AAH 320 g/ha): 5 (Herbicidal rate of 90% or more (almost completely withered))
- H: barnyard grass, herbicidal effect (barnyard grass [16]; AAH 320 g/ha): 4 (Herbicidal rate of 70% or more and less than 90%)
- I: wild oat, herbicidal effect (wild oat [17]; AAH 320 g/ha): 4 (Herbicidal rate of 70% or more and less than 90%)
- J: blackgrass, herbicidal effect (blackgrass [18]; AAH 320 g/ha): 4 (Herbicidal rate of 70% or more and less than 90%)
- K: Italian ryegrass, herbicidal effect (Italian ryegrass [19]; AAH 320 g/ha): 2 (Herbicidal rate of 20% or more and less than 40%)
- L: windgrass, herbicidal effect (windgrass [20]; AAH 320 g/ha): 5 (Herbicidal rate of 90% or more (almost completely withered))
- M: velvetleaf, herbicidal effect (velvetleaf [21]; AAH 320 g/ha): 5 (Herbicidal rate of 90% or more (almost completely withered))
- N: redroot pigweed, herbicidal effect (redroot pigweed [22]; AAH 320 g/ha): 5 (Herbicidal rate of 90% or more (almost completely withered))
- O: lambsquarters, herbicidal effect (lambsquarters [23]; AAH 320 g/ha): 4 (Herbicidal rate of 70% or more and less than 90%)
- P: chickweed, herbicidal effect (chickweed [24]; AAH 320 g/ha): 5 (Herbicidal rate of 90% or more (almost completely withered))
- R: persian speedwell, herbicidal effect (persian speedwell [25]; AAH 320 g/ha): 5 (Herbicidal rate of 90% or more (almost completely withered))

SMILES: Cc1nn(C)c(=O)c(-c2c(-c3cccc(C#N)c3)sc3ccccc23)c1O [1-123]
- herbicidal effect on H (barnyard grass), rating 0-5 (barnyard grass [1]; 296 g/ha): 3 (Herbicidal rate of 40% or more and less than 70%)
- herbicidal effect on D (Chinese sprangletop), rating 0-5 (Chinese sprangletop; 296 g/ha): 3 (Herbicidal rate of 40% or more and less than 70%)
- herbicidal effect on E (rice flat sedge), rating 0-5 (rice flat sedge; 296 g/ha): 3 (Herbicidal rate of 40% or more and less than 70%)
- F: southern crabgrass, herbicidal effect rating (southern crabgrass [2]; AAH 296 g/ha): 0 (Herbicidal rate of 5% or less (almost no effect))
- G: green foxtail, herbicidal effect rating (green foxtail [3]; AAH 296 g/ha): 0 (Herbicidal rate of 5% or less (almost no effect))
- H: barnyard grass, herbicidal effect rating (barnyard grass [4]; AAH 296 g/ha): 0 (Herbicidal rate of 5% or less (almost no effect))
- I: wild oat, herbicidal effect rating (wild oat [5]; AAH 296 g/ha): 0 (Herbicidal rate of 5% or less (almost no effect))
- J: blackgrass, herbicidal effect rating (blackgrass [6]; AAH 296 g/ha): 0 (Herbicidal rate of 5% or less (almost no effect))
- K: Italian ryegrass, herbicidal effect rating (Italian ryegrass [7]; AAH 296 g/ha): 0 (Herbicidal rate of 5% or less (almost no effect))
- L: windgrass, herbicidal effect rating (windgrass [8]; AAH 296 g/ha): 0 (Herbicidal rate of 5% or less (almost no effect))
- M: velvetleaf, herbicidal effect rating (velvetleaf [9]; AAH 296 g/ha): 0 (Herbicidal rate of 5% or less (almost no effect))
- N: redroot pigweed, herbicidal effect rating (redroot pigweed [10]; AAH 296 g/ha): 4 (Herbicidal rate of 70% or more and less than 90%)
- O: lambsquarters, herbicidal effect rating (lambsquarters [11]; AAH 296 g/ha): 4 (Herbicidal rate of 70% or more and less than 90%)
- P: chickweed, herbicidal effect rating (chickweed [12]; AAH 296 g/ha): 1 (Herbicidal rate of 5% or more and less than 20%)
- R: persian speedwell, herbicidal effect rating (persian speedwell [13]; AAH 296 g/ha): 3 (Herbicidal rate of 40% or more and less than 70%)
- F: southern crabgrass, herbicidal effect (southern crabgrass [14]; AAH 296 g/ha): 0 (Herbicidal rate of 5% or less (almost no effect))
- G: green foxtail, herbicidal effect (green foxtail [15]; AAH 296 g/ha): 0 (Herbicidal rate of 5% or less (almost no effect))
- H: barnyard grass, herbicidal effect (barnyard grass [16]; AAH 296 g/ha): 0 (Herbicidal rate of 5% or less (almost no effect))
- I: wild oat, herbicidal effect (wild oat [17]; AAH 296 g/ha): 0 (Herbicidal rate of 5% or less (almost no effect))
- J: blackgrass, herbicidal effect (blackgrass [18]; AAH 296 g/ha): 0 (Herbicidal rate of 5% or less (almost no effect))
- K: Italian ryegrass, herbicidal effect (Italian ryegrass [19]; AAH 296 g/ha): 0 (Herbicidal rate of 5% or less (almost no effect))
- L: windgrass, herbicidal effect (windgrass [20]; AAH 296 g/ha): 0 (Herbicidal rate of 5% or less (almost no effect))
- M: velvetleaf, herbicidal effect (velvetleaf [21]; AAH 296 g/ha): 5 (Herbicidal rate of 90% or more (almost completely withered))
- N: redroot pigweed, herbicidal effect (redroot pigweed [22]; AAH 296 g/ha): 5 (Herbicidal rate of 90% or more (almost completely withered))
- O: lambsquarters, herbicidal effect (lambsquarters [23]; AAH 296 g/ha): 3 (Herbicidal rate of 40% or more and less than 70%)
- P: chickweed, herbicidal effect (chickweed [24]; AAH 296 g/ha): 5 (Herbicidal rate of 90% or more (almost completely withered))
- R: persian speedwell, herbicidal effect (persian speedwell [25]; AAH 296 g/ha): 1 (Herbicidal rate of 5% or more and less than 20%)

— patent US20230085307A1, “PYRIDAZINONE COMPOUND AND HERBICIDE” (NISSAN CHEMICAL CORPORATION, priority 2019, published 2023)
